This note sets out measurements from patent publication US12172995B2, “Substituted indole and indazole compounds” (BRISTOL-MYERS SQUIBB COMPANY, priority 2018, dated 2024).

What all share (format): cell-based
For one assay, the target named is T1, human TLR7 (Homo sapiens, UniProt Q9NYK1).
T1 construct: host or cells: HEK-Blue cells
T1 sequence (Q9NYK1 27-1049): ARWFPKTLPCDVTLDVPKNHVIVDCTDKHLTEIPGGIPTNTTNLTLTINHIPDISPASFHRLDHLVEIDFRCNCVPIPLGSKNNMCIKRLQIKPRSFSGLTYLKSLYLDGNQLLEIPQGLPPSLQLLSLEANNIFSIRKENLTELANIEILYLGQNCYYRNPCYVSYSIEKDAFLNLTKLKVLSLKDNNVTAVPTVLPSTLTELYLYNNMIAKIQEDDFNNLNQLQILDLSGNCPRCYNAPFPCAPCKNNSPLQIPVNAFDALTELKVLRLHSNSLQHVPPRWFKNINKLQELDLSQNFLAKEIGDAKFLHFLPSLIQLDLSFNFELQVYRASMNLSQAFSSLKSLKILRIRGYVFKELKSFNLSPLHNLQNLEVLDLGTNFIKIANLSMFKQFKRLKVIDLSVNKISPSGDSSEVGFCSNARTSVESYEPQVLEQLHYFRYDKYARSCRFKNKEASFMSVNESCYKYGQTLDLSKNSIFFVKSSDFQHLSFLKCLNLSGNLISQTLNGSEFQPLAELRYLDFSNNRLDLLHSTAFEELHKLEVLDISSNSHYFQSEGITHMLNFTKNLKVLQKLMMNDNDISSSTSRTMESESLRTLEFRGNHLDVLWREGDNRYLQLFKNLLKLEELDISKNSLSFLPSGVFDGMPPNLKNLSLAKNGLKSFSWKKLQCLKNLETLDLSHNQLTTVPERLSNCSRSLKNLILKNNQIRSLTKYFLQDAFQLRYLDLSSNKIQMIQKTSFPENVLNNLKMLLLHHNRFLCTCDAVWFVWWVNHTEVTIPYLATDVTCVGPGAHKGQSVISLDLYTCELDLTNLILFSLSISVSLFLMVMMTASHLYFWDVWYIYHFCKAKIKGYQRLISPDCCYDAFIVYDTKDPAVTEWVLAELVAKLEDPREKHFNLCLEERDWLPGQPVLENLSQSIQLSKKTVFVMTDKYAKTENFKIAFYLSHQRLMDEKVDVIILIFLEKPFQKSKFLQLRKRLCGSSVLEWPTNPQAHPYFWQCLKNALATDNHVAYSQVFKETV
The experiment in a line: TLR7 inhibition reporter assay (HEK-Blue SEAP). Particulars: HEK-Blue cells overexpressing human TLR7, stimulated with gardiquimod 7.5 μM, 22 hour incubation. The gist of the method: (§1)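 Cells are seeded, given test compound across 0.05 nM to 50 μM, and after 30 min at room temperature stimulated with the receptor's agonist (gardiquimod 7.5 μM, R848 15.9 μM or ODN2006 5 nM for TLR7, 8, 9). SEAP is measured after 22 h at 37 °C.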
In general terms: In a reporter assay the amount or activity of a reporter protein is the signal.

The target in the next assay is T2, human TLR8 (Homo sapiens, UniProt Q9NR97).
T2 construct: host or cells: HEK-Blue cells
T2 sequence (Q9NR97 27-1041): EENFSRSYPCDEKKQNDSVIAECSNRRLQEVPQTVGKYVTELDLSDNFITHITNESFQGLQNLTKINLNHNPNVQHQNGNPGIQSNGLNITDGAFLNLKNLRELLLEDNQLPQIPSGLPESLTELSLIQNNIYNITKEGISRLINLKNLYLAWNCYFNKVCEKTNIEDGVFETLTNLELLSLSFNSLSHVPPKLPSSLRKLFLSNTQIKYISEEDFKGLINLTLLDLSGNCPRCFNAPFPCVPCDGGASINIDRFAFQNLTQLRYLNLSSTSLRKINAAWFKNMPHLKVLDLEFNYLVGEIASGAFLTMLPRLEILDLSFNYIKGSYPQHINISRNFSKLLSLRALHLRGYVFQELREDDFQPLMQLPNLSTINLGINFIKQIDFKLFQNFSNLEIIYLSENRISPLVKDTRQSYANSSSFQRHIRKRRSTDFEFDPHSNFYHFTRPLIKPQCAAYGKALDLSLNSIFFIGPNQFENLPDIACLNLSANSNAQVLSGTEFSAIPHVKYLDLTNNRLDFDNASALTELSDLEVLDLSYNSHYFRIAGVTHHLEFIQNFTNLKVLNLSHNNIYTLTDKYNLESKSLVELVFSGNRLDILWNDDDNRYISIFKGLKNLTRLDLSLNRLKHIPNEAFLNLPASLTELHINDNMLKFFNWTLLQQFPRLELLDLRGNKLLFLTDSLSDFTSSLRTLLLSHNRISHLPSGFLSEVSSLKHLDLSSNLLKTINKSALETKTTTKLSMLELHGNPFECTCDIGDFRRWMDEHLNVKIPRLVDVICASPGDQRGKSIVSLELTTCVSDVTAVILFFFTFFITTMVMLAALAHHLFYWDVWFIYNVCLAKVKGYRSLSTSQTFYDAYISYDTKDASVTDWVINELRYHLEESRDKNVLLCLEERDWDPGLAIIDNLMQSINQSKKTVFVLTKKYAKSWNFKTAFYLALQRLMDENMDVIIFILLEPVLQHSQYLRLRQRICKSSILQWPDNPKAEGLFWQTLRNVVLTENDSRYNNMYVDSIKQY
The experiment in a line: TLR8 inhibition reporter assay (HEK-Blue SEAP). The settings on record: HEK-Blue cells overexpressing human TLR8, stimulated with R848 15.9 μM, 22 hour incubation. In short, it runs like this: as §1

The next assay deals with T3, human TLR9 (Homo sapiens, UniProt Q9NR96).
T3 construct: host or cells: HEK-Blue cells
T3 sequence (Q9NR96 26-1032): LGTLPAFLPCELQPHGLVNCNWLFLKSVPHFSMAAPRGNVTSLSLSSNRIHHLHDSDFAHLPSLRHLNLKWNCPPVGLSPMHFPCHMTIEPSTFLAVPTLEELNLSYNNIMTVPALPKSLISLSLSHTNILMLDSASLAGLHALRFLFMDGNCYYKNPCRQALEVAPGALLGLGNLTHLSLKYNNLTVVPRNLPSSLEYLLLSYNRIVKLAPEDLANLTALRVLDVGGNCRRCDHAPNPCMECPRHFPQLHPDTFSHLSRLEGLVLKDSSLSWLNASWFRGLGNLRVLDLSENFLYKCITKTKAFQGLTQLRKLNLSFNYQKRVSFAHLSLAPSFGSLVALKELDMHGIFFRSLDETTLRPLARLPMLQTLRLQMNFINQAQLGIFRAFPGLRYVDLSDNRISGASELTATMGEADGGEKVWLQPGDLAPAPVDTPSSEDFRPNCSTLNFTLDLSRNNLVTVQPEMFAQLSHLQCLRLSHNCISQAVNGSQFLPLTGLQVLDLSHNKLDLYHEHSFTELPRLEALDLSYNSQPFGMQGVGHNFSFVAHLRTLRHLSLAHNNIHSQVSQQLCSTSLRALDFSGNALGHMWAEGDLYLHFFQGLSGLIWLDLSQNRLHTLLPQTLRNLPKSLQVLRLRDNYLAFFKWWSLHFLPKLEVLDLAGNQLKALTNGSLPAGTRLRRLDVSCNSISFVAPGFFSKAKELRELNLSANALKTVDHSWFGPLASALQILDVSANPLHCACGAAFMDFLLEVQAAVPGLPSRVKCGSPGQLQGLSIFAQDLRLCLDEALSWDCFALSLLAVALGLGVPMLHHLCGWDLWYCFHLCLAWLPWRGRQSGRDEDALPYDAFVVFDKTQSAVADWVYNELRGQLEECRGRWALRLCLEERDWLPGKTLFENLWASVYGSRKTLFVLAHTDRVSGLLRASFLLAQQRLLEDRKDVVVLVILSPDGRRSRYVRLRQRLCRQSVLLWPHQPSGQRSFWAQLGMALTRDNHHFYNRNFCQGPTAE
The experiment in a line: TLR9 inhibition reporter assay (HEK-Blue SEAP). Particulars: HEK-Blue cells overexpressing human TLR9, stimulated with ODN2006 5 nM, 22 hour incubation. The gist of the method: as §1

On to `Cc1cc2c(C3CCCNC3)n[nH]c2cc1-c1cc(C)c(=O)n(C)c1` (stereo not drawn) [Example 46, 1,3-dimethyl-5-(5-methyl-3-(piperidin-3-yl)-1H-indazol-6-yl)pyridin-2(1H)-one], for which the values for the IC50 at human TLR7, on human TLR8 and against human TLR9 were 124 nM, 2.1 nM and 1040 nM, respectively.
For `Cc1cc2c(C3CCCNC3)n[nH]c2cc1-c1cn(C)c2ncccc12` (stereo not drawn) [Example 47, 5-methyl-6-(1-methyl-1H-pyrrolo[2,3-b]pyridin-3-yl)-3-(piperidin-3-yl)-1H-indazole], in that order: 22.9 nM, 0.2 nM and 2880 nM.
Turning to `Cc1cc2c(C3CCCNC3)n[nH]c2cc1-c1cn2ncnc2c(C)c1C` (stereo not drawn) [Example 48, 7,8-dimethyl-6-(5-methyl-3-(piperidin-3-yl)-1H-indazol-6-yl)-[1,2,4]triazolo[1,5-a]pyridine], the IC50 (usually the concentration that inhibits the measured activity by half) at human TLR7 is 47.6 nM; on human TLR8, 2.5 nM; at human TLR9 it was 2310 nM.
As to `Cc1cc2c(C3CNC3)n[nH]c2cc1-c1cc(C)c2ncnn2c1` [Example 49, 6-(3-(azetidin-3-yl)-5-methyl-1H-indazol-6-yl)-8-methyl-[1,2,4]triazolo[1,5-a]pyridine], the IC50 on human TLR7 was found to be 174 nM; against human TLR8 it was 15.3 nM; against human TLR9 it was 1890 nM.
For `Cc1cc(-c2cc3[nH]nc(C4CCCNC4)c3cc2C)cc(C)n1` (stereo not drawn) [Example 50, 6-(2,6-dimethylpyridin-4-yl)-5-methyl-3-(piperidin-3-yl)-1H-indazole], in that order: 63.4 nM, 1.5 nM and 404 nM.
Take `Cc1cc(-c2cc(C)c3ncnn3c2)cc2[nH]nc(C3CCCNC3)c12` (stereo not drawn) [Example 51, 8-methyl-6-(4-methyl-3-(piperidin-3-yl)-1H-indazol-6-yl)-[1,2,4]triazolo[1,5-a]pyridine]: the IC50 against human TLR7 came to 4.7 nM; against human TLR8, 19.6 nM; at human TLR9, 287 nM.
For `Cc1cc2c(C3CCCN(CC(=O)N(C)C)C3)n[nH]c2cc1-c1cc(C)c2ncnn2c1` (stereo not drawn) [Example 53, N,N-dimethyl-2-(3-(5-methyl-6-(8-methyl-[1,2,4]triazolo[1,5-a]pyridin-6-yl)-1H-indazol-3-yl)piperidin-1-yl)acetamide] the same measures were 44.2 nM, 1.2 nM and 5830 nM.
With `Cc1cc2c(C3CCCN(C(=O)CN(C)C)C3)n[nH]c2cc1-c1cc(C)c2ncnn2c1` (stereo not drawn) [Example 54, 2-(dimethylamino)-1-(3-(5-methyl-6-(8-methyl-[1,2,4]triazolo[1,5-a]pyridin-6-yl)-1H-indazol-3-yl)piperidin-1-yl)ethan-1-one], the IC50 on human TLR7 is 41 nM; against human TLR8, 6.4 nM; at human TLR9 it was 5270 nM.
Consider `Cc1cc2c(C3CCCN(C(=O)CN(C)C)C3)n[nH]c2cc1-c1cc(C)c2ncnn2c1` (stereo not drawn) [Example 56, 2-(dimethylamino)-1-(3-(5-methyl-6-(8-methyl-[1,2,4]triazolo[1,5-a]pyridin-6-yl)-1H-indazol-3-yl)piperidin-1-yl)ethan-1-one], for which the IC50 on human TLR7 was 12.2 nM; at human TLR8, 1.7 nM; against human TLR9 it was 4940 nM.
For the molecule `Cc1cc2c(C3CCCN(CC(=O)N(C)C)C3)n[nH]c2cc1-c1cc(C)c2ncnn2c1` (stereo not drawn) [Example 57, N,N-dimethyl-2-(3-(5-methyl-6-(8-methyl-[1,2,4]triazolo[1,5-a]pyridin-6-yl)-1H-indazol-3-yl)piperidin-1-yl)acetamide], the figures for the IC50 against human TLR7, against human TLR8 and at human TLR9 were 19.9 nM, 4.5 nM and 6900 nM, respectively.
For `Cc1cc2c(C3CCCNC3)n[nH]c2cc1-c1ccc2ncnn2c1` (stereo not drawn) [Example 58, 6-(5-methyl-3-(piperidin-3-yl)-1H-indazol-6-yl)-[1,2,4]triazolo[1,5-a] pyridine], the IC50 against human TLR7 amounted to 76.2 nM; at human TLR8, 2.8 nM; against human TLR9, 661 nM.
